Reference: patent publication US8119671B2, “Isoxazoline-substituted benzamide compound and pest control agent” (Nissan Chemical Industries, Ltd., priority 2007, dated 2012)

Columns and labels:
Assay type in all cases: in vivo
Homona magnanima = assay: Test Example 3: Mortality Test for Homona magnanima; conditions: 144 h
Procedure: (§1) A 10% emulsifiable concentrate of the compound of the present invention (depending on the type of the compound, a 10% wettable powder was subjected to the test) was diluted with water containing a spreader to prepare a drug solution in a concentration of 100 ppm. In this drug solution, a leaf of canarium album was immersed for about 10 seconds and was air-dried and then put into a petri dish. In the petri dish, five 2 instar larvae of Homona magnanima per petri dish were released and the petri dish was capped and stored in a thermostat room of 25° C. The number of killed larvae after 6 days was measured and the mortality was calculated from the same calculation formula as that in Test Example 1. Here, the test was carried out with two replications.

Helicoverpa armigera = assay: Test Example 4: Mortality Test for Helicoverpa armigera; conditions: 144 h
Procedure: as §1, with “dish, one” for “dish, five”, “instar larva” for “instar larvae”, “of Helicoverpa armigera” for “of Homona magnanima”, “dish was” for “dish were”, “with 2” for “with two”

Bemisia argentifolii = assay: Test Example 9: Mortality Test for Bemisia argentifolii; conditions: in Solanum lycopersicum, 144 h
Procedure: (§2) In a styrol cup having an inner diameter of 7 cm, a wet filtration paper was laid, and on the paper, a cut-out leaf of tomato on which Bemisia argentifolii laid eggs (10 eggs/leaf) was laid. A 10% emulsifiable concentrate of the compound of the present invention (depending on the type of the compound, a 10% wettable powder was subjected to the test) was diluted with water containing a spreader to prepare a drug solution in a concentration of 500 ppm. The drug solution was dusted using a rotary dusting tower in an amount of 2.5 mL per styrol cup and the cup was capped and stored in a thermostat room of 25° C. The number of killed larvae after 6 days was measured and the mortality was calculated from the same calculation formula as that in Test Example 1. Here, the test was carried out with two replications.

Myzus persicae = assay: Test Example 10: Mortality Test for Myzus persicae; conditions: 144 h
Procedure: In a glass petri dish having an inner diameter of 3 cm, a wet absorbent cotton was laid, and on the cotton, a leaf of canarium album cut out so as to have the same diameter as the inner diameter of the petri dish was laid, followed by releasing 4 apterous imagines of Myzus persicae on the leaf. After one day, 10% emulsifiable concentrate of the compound of the present invention (depending on the type of the compound, a 10% wettable powder was subjected to the test) was diluted with water containing a spreader to prepare a drug solution in a concentration of 500 ppm. The drug solution was dusted using a rotary dusting tower (2.5 mg/cm^2) and the petri dish was capped and stored in a thermostat room of 25° C. The number of killed imagines after 6 days was measured and the mortality was calculated from the same calculation formula as that in Test Example 1. Here, the test was carried out with two replications.

Aulacophora femoralis = assay: Test Example 12: Mortality Test for Aulacophora femoralis; conditions: in Cucumis sativus, 144 h
Procedure: as §1, with “500” for “100”, “cucumber” for “canarium album”, “Aulacophora femoralis” for “Homona magnanima”

Liriomyza trifolii = assay: Test Example 13: Mortality Test for Liriomyza trifolii; conditions: 144 h, drug solution 500 ppm, kidney bean leaf with eggs immersed, after 6 days
Procedure: A 10% emulsifiable concentrate of the compound of the present invention (depending on the type of the compound, a 10% wettable powder was subjected to the test) was diluted with water containing a spreader to prepare a drug solution in a concentration of 500 ppm. In this drug solution, a leaf of kidney bean on which Liriomyza trifolii laid eggs (10 eggs/leaf) and which was cut out to a diameter of 7 cm was immersed for about 10 seconds and was air-dried and then laid on a wet filtration paper laid in a styrol cup having an inner diameter of 7 cm. The styrol cup was capped and stored in a thermostat room of 25° C. The number of killed larvae after 6 days was measured and the mortality was calculated from the same calculation formula as that in Test Example 1. Here, the test was carried out with two replications.

Tetranychus urticae = assay: Test Example 14: Mortality Test for Tetranychus urticae; conditions: 144 h
Procedure: as §2, with “a” for “a cut-out”, “kidney bean cut out so as to have the same diameter as the inner diameter of the cup” for “tomato on which Bemisia argentifolii laid eggs (10 eggs/leaf)”, “laid, followed by inoculating 10 larvae of Tetranychus urticae per leaf to the leaf.” for “laid.”

[1] = system: Frankliniella occidentalis; assay: Test Example 18: Mortality Test for Frankliniella occidentalis (Comparative Test 2); conditions: 48 h
Procedure: In a styrol cup having an inner diameter of 7 cm, a wet filtration paper was laid, and on the paper, a leaf of kidney bean cut out so as to have the same diameter as the inner diameter of the cup was laid, followed by inoculating ten 1 instar larvae of Frankliniella occidentalis per leaf to the leaf. 10% emulsifiable concentrates of the compound of the present invention and a comparative compound were diluted with water containing a spreader to prepare drug solutions in a predetermined concentration. The drug solutions were dusted using a rotary dusting tower in an amount of 2.5 mL per styrol cup, and the cup was capped and stored in a thermostat room of 25° C. The number of killed larvae after 2 days was measured and the mortality was calculated from the following calculation formula: Mortality (%)=(number of killed larvae/number of released larvae)×100. Here, the test was carried out with two replications.

Cc1cc(C2=NOC(c3cc(Cl)cc(Cl)c3)(C(F)(F)F)C2)ccc1C(=O)NC1(c2ccccn2)CC1 (stereo not drawn) [No. 1-007, 4-[5-(3,5-Dichlorophenyl)-5-trifluoromethyl-4,5-dihydroisoxazole-3-yl]-2-methyl-N-[1-(2-pyridyl)cyclopropyl]benzamide]
mortality at 100 ppm (Homona magnanima): ≥ 80% | mortality at 100 ppm (Helicoverpa armigera): ≥ 80% | mortality at 500 ppm (Bemisia argentifolii): ≥ 80% | mortality at 500 ppm (Myzus persicae): ≥ 80% | mortality at 500 ppm (Aulacophora femoralis): ≥ 80% | mortality at 500 ppm (Liriomyza trifolii): ≥ 80% | mortality at 500 ppm (Tetranychus urticae): ≥ 80% | mortality at 0.1 ppm [1]: 0% | mortality at 0.3 ppm [1]: 0% | mortality at 1 ppm [1]: 38.1% | mortality at 3.3 ppm [1]: 96.3% | mortality at 10 ppm [1]: 100%
